A value given as a limit tells only on which side of the number the result lay.

The target in this assay is T1, LPA1 (Homo sapiens, UniProt Q92633).
T1 construct: ProLink (PK) beta-galactosidase enzyme-fragment tag; host or cells: CHO-K1
T1 sequence (Q92633 whole entry, the tested form may be a part): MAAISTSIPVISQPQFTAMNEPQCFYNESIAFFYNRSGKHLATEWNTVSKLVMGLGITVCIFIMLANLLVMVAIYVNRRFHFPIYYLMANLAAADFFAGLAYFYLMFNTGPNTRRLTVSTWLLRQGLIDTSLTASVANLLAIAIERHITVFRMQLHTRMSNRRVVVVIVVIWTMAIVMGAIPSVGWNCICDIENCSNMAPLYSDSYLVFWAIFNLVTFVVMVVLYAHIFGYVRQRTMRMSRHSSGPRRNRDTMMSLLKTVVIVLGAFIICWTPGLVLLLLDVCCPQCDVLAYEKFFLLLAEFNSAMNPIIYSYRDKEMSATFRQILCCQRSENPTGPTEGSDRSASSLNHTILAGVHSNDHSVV
Nature of the assay: LPA1 calcium flux assay (LPA1 functional antagonist assay). The format is cell-based. The conditions noted are these: PathHunter CHO-K1 EDG2 β-Arrestin cell line; calcium indicator dye; stimulated with EC80 concentration of LPA; FLIPR Tetra. The method, boiled down: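 The LPA1 antagonist readout was intracellular calcium flux, and IC50 values were calculated from it. Plates stood 30 min at RT after compound addition. Cells, grown overnight, had first taken up calcium dye over 45 min at 37 °C.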
On the technique in general: Calcium assays in cells follow changes in intracellular calcium, usually with a dye or a luminescent sensor.
In general, IC50 refers to the midpoint of a concentration-inhibition curve. As for `CCc1nc(-c2nnn(C)c2Cn2nc(C3CC3)ccc2=O)ccc1N1C[C@@H](CC(=O)O)CC(F)(F)C1` [Example 36, (S)2-(1-(6-(5-((3-cyclopropyl-6-oxopyridazin-1(6H)-yl)methyl)-1-methyl-1H-1,2,3-triazol-4-yl)-2-ethylpyridin-3-yl)-5,5-difluoropiperidin-3-yl)acetic acid], the concentration for half-maximal inhibition (IC50) is 100 to 500 nM.
Under `CCCc1ccc(=O)n(Cc2c(-c3ncc(N4C[C@@H](CC(=O)O)CC(F)(F)C4)c(CC)n3)cnn2C)c1` [Example 37, (S)-2-(1-(4-ethyl-2-(1-methyl-5-((2-oxo-5-propylpyridin-1(2H)-yl)methyl)-1H-pyrazol-4-yl)pyrimidin-5-yl)-5,5-difluoropiperidin-3-yl)acetic acid] stands more than 5000 nM.
Under `CCCc1cnc(=O)n(Cc2c(-c3ncc(N4C[C@@H](CC(=O)O)CC(F)(F)C4)c(CC)n3)cnn2C)c1` [Example 38, (S)-2-(1-(4-ethyl-2-(1-methyl-5-((2-oxo-5-propylpyrimidin-1(2H)-yl)methyl)-1H-pyrazol-4-yl)pyrimidin-5-yl)-5,5-difluoropiperidin-3-yl)acetic acid] stands more than 5000 nM; under `CCc1nc(-c2cnn(C)c2Cn2cc(C3CC3)ccc2=O)ncc1N1C[C@@H](CC(=O)O)CC(F)(F)C1` [Example 39, (S)-2-(1-(2-(5-((5-cyclopropyl-2-oxopyridin-1(2H)-yl)methyl)-1-methyl-1H-pyrazol-4-yl)-4-ethylpyrimidin-5-yl)-5,5-difluoropiperidin-3-yl)acetic acid], 500 to 5000 nM.
Under `CCc1nc(-c2cnn(C)c2Cn2cc(CC(C)C)ccc2=O)ncc1N1C[C@@H](CC(=O)O)CC(F)(F)C1` [Example 40, (S)-2-(1-(4-ethyl-2-(5-((5-isobutyl-2-oxopyridin-1(2H)-yl)methyl)-1-methyl-1H-pyrazol-4-yl)pyrimidin-5-yl)-5,5-difluoropiperidin-3-yl)acetic acid] stands 500 to 5000 nM; under `CCCc1ccc(=O)n(Cc2c(-c3ccc(N4C[C@@H](CC(=O)O)CC(F)(F)C4)c(CC)n3)cnn2C)c1` [Example 41, (S)-2-(1-(2-ethyl-6-(1-methyl-5-((2-oxo-5-propylpyridin-1(2H)-yl)methyl)-1H-pyrazol-4-yl)pyridin-3-yl)-5,5-difluoropiperidin-3-yl)acetic acid], 100 to 500 nM; under `CCCc1ccc(=O)n(Cc2c(-c3ccc(N4CCC[C@H](CC(=O)O)C4)c(CC)n3)cnn2C)c1` [Example 42, (R)-2-(1-(2-ethyl-6-(1-methyl-5-((2-oxo-5-propylpyridin-1(2H)-yl)methyl)-1H-pyrazol-4-yl)pyridin-3-yl)piperidin-3-yl)acetic acid], 500 to 5000 nM.
Take `CCCc1ccnn(CCc2c(-c3ccc(N4CC(CC(=O)O)CC(F)(F)C4)c(C)n3)nnn2C)c1=O` (stereo not shown) [Example 44, 2-[5,5-difluoro-1-(2-methyl-6-{1-methyl-5-[2-(6-oxo-5-propyl-1,6-dihydropyridazin-1-yl)ethyl]-1H-1,2,3-triazol-4-yl}pyridin-3-yl)piperidin-3-yl]acetic acid]: the IC50 was more than 5000 nM.
Consider `CCCc1ccc(=O)n(Cc2c(-c3cc(F)c(N4CCCC(CC(=O)O)C4)c(C)n3)nnn2C)c1` (stereo not shown) [Example 47, 2-(1-(4-fluoro-2-methyl-6-(1-methyl-5-((2-oxo-5-propylpyridin-1(2H)-yl)methyl)-1H-1,2,3-triazol-4-yl)pyridin-3-yl)piperidin-3-yl)acetic acid], for which the concentration for half-maximal inhibition (IC50) was more than 5000 nM.
As for `CCCc1ccc(=O)n(Cc2c(-c3cc(F)c(N4CCCC(CC(=O)O)C4)c(CC)n3)nnn2C)c1` (stereo not shown) [Example 48, 2-(1-(2-ethyl-4-fluoro-6-(1-methyl-5-((2-oxo-5-propylpyridin-1(2H)-yl)methyl)-1H-1,2,3-triazol-4-yl)pyridin-3-yl)piperidin-3-yl)acetic acid], the figure is more than 5000 nM; as for `CCCc1ccc(=O)n(Cc2c(-c3ccc(N4C[C@@H](CC(=O)O)CC(F)(F)C4)c(C#N)n3)nnn2C)c1` [Example 49, (S)-2-(1-(2-cyano-6-(1-methyl-5-((2-oxo-5-propylpyridin-1(2H)-yl)methyl)-1H-1,2,3-triazol-4-yl)pyridin-3-yl)-5,5-difluoropiperidin-3-yl)acetic acid], more than 5000 nM.
As for `CCCc1ccc(=O)n(Cc2c(-c3ccc(N4CCC[C@H](CC(=O)O)C4)c(C#N)n3)nnn2C)c1` [Example 50, (R)-2-(1-(2-cyano-6-(1-methyl-5-((2-oxo-5-propylpyridin-1(2H)-yl)methyl)-1H-1,2,3-triazol-4-yl)pyridin-3-yl)piperidin-3-yl)acetic acid], the figure is more than 5000 nM.
For `CCCc1ccc(=O)n(Cc2c(-c3ccc(N4CCC[C@@H](CC(=O)O)C4)c(C#N)n3)nnn2C)c1` [Example 51, (S)-2-(1-(2-cyano-6-(1-methyl-5-((2-oxo-5-propylpyridin-1(2H)-yl)methyl)-1H-1,2,3-triazol-4-yl)pyridin-3-yl)piperidin-3-yl)acetic acid], the IC50 is more than 5000 nM.
Under `CCCc1ccc(=O)n(Cc2c(-c3cnc(N4CCCC(CC(=O)O)C4)cn3)nnn2C)c1` (stereo not shown) [Example 57, 2-(1-(5-(1-methyl-5-((2-oxo-5-propylpyridin-1(2H)-yl)methyl)-1H-1,2,3-triazol-4-yl)pyrazin-2-yl)piperidin-3-yl)acetic acid] stands more than 5000 nM.
Under `CCCc1ccc(=O)n(Cc2c(-c3ccc(N4CCC[C@H](CC(=O)O)C4)c(C(F)(F)F)n3)nnn2C)c1` [Example 58, 2-[(3R)-1-(6-{1-methyl-5-[(2-oxo-5-propyl-1,2-dihydropyridin-1-yl)methyl]-1H-1,2,3-triazol-4-yl}-2-(trifluoromethyl)pyridin-3-yl)piperidin-3-yl]acetic acid] stands less than 100 nM; under `Cn1nnc(-c2ccc(N3CCC[C@H](CC(=O)O)C3)c(C(F)(F)F)n2)c1Cn1cc(C2CC2)ccc1=O` [Example 59, (R)-2-(1-(6-(5-((5-cyclopropyl-2-oxopyridin-1(2H)-yl)methyl)-1-methyl-1H-1,2,3-triazol-4-yl)-2-(trifluoromethyl)pyridin-3-yl)piperidin-3-yl)acetic acid], less than 100 nM.
As for `CCCc1ccc(=O)n(Cc2c(-c3ccc(N4CCC[C@H](CC(=O)O)C4)c(C(F)F)n3)nnn2C)c1` [Example 60, (R)-2-(1-(2-(difluoromethyl)-6-(1-methyl-5-((2-oxo-5-propylpyridin-1(2H)-yl)methyl)-1H-1,2,3-triazol-4-yl)pyridin-3-yl)piperidin-3-yl)acetic acid], the IC50 was less than 100 nM.
As for `CCc1nc(-c2nnn(C)c2CN2C[C@H](CC3CC3)N(C)C2=O)ccc1N1C[C@@H](CC(=O)O)CC(F)(F)C1` [Example 61, 2-((S)-1-(6-(5-(((S)-4-(cyclopropylmethyl)-3-methyl-2-oxoimidazolidin-1-yl)methyl)-1-methyl-1H-1,2,3-triazol-4-yl)-2-ethylpyridin-3-yl)-5,5-difluoropiperidin-3-yl)acetic acid], the IC50 fell in the range of 500 to 5000 nM.
Under `Cc1nc(-c2nnn(C)c2CN2C[C@@H](CC3CC3)N(C)C2=O)ccc1N1C[C@@H](CC(=O)O)CC(F)(F)C1` [Example 62, 2-((S)-1-(6-(5-(((R)-4-(cyclopropylmethyl)-3-methyl-2-oxoimidazolidin-1-yl)methyl)-1-methyl-1H-1,2,3-triazol-4-yl)-2-methylpyridin-3-yl)-5,5-difluoropiperidin-3-yl)acetic acid] stands 500 to 5000 nM; under `Cc1nc(-c2nnn(C)c2CN2C[C@H](CC3CC3)N(C)C2=O)ccc1N1C[C@@H](CC(=O)O)CC(F)(F)C1` [Example 63, 2-((S)-1-(6-(5-(((S)-4-(cyclopropylmethyl)-3-methyl-2-oxoimidazolidin-1-yl)methyl)-1-methyl-1H-1,2,3-triazol-4-yl)-2-methylpyridin-3-yl)-5,5-difluoropiperidin-3-yl)acetic acid], 100 to 500 nM.
Take `Cc1nc(-c2nnn(C)c2CN2C[C@H](CC3CC3)N(C)C2=O)ccc1N1C[C@H](CC(=O)O)CC(F)(F)C1` [Example 64, 2-((R)-1-(6-(5-(((S)-4-(cyclopropylmethyl)-3-methyl-2-oxoimidazolidin-1-yl)methyl)-1-methyl-1H-1,2,3-triazol-4-yl)-2-methylpyridin-3-yl)-5,5-difluoropiperidin-3-yl)acetic acid]: the IC50 lay within 500 to 5000 nM.
Under `CCc1nc(-c2nnn(C)c2CN2C[C@H](CC3CC3)NC2=O)ccc1N1C[C@@H](CC(=O)O)CC(F)(F)C1` [Example 65, 2-((S)-1-(6-(5-(((S)-4-(cyclopropylmethyl)-2-oxoimidazolidin-1-yl)methyl)-1-methyl-1H-1,2,3-triazol-4-yl)-2-ethylpyridin-3-yl)-5,5-difluoropiperidin-3-yl)acetic acid] stands more than 5000 nM; under `Cc1nc(-c2nnn(C)c2Cn2cc(CC3CC3)n(C)c2=O)ccc1N1C[C@@H](CC(=O)O)CC(F)(F)C1` [Example 67, (S)-2-(1-(6-(5-((4-(cyclopropylmethyl)-3-methyl-2-oxo-2,3-dihydro-1H-imidazol-1-yl)methyl)-1-methyl-1H-1,2,3-triazol-4-yl)-2-methylpyridin-3-yl)-5,5-difluoropiperidin-3-yl)acetic acid], 100 to 500 nM.
Under `CCc1nc(-c2nnn(C)c2Cn2nc(CC3CC3)n(C)c2=O)ccc1N1C[C@@H](CC(=O)O)CC(F)(F)C1` [Example 68, (S)-2-(1-(6-(5-((3-(cyclopropylmethyl)-4-methyl-5-oxo-4,5-dihydro-1H-1,2,4-triazol-1-yl)methyl)-1-methyl-1H-1,2,3-triazol-4-yl)-2-ethylpyridin-3-yl)-5,5-difluoropiperidin-3-yl)acetic acid] stands 500 to 5000 nM; under `Cc1nc(-c2nnn(C)c2Cn2ccn(CC(C)C)c2=O)ccc1N1C[C@@H](CC(=O)O)CC(F)(F)C1` [Example 71, (S)-2-(5,5-difluoro-1-(6-(5-((3-isobutyl-2-oxo-2,3-dihydro-1H-imidazol-1-yl)methyl)-1-methyl-1H-1,2,3-triazol-4-yl)-2-methylpyridin-3-yl)piperidin-3-yl)acetic acid], more than 5000 nM.

The values above are taken from patent US12780800B1, “Triazole-pyridinyl substituted azacyclohexyl acetic acid compounds as LPA receptor antagonists” (Viva Star Biosciences Limited, priority 2021, dated 2022).
